Experimental data published in the NIST ThermoML archive (doi:10.1016/j.jct.2012.01.002).
“And” between values parts separate entries of the source, which are not always exact repeats. Identical values can stand only once. ± gives the expanded uncertainty stated by the source.

What was measured:
[1] = 101.33 kPa, Liquid, Vibrating tube method
[2] = xn = mol fraction of the nth substance listed; conditions: 101 kPa, Liquid, Vibrating tube method

CCCCCCCC[N+](C)(CCCCCCCC)CCCCCCCC.O=S(=O)([N-]S(=O)(=O)C(F)(F)F)C(F)(F)F
[1]
Conditions	mass density [kg/m3]
298.15 K	1106.9 ± 1.1
303.15 K	1103.2 ± 1.1
313.15 K	1095.7 ± 1

CCC(C)O (centres undefined) [butan-2-ol] + CCOC(C)=O
mass density [kg/m3], [2]
Conditions	298.15 K	303.15 K	313.15 K
x1 = 0.0603	888.5 ± 0.1	882.5 ± 0.1	870.2 ± 0.1
x1 = 0.1109	883.2 ± 0.1	877.6 ± 0.1	865.6 ± 0.2
x1 = 0.1511	878.9 ± 0.1	873.2 ± 0.1	861.4 ± 0.2
x1 = 0.1998	873.8 ± 0.1	868.6 ± 0.1	857.1 ± 0.2
x1 = 0.2502	868.8 ± 0.2	863.5 ± 0.2	852.5 ± 0.2
x1 = 0.302	863.6 ± 0.2	858.4 ± 0.2	847.5 ± 0.2
x1 = 0.3489	858.9 ± 0.2	853.9 ± 0.2	843.2 ± 0.2
x1 = 0.3988	854.1 ± 0.2	849.2 ± 0.2	838.7 ± 0.2
x1 = 0.4506	849.4 ± 0.2	844.4 ± 0.2	834.3 ± 0.2
x1 = 0.5011	844.6 ± 0.2	839.9 ± 0.2	829.9 ± 0.2
x1 = 0.5631	839 ± 0.2	834.3 ± 0.2	824.5 ± 0.2
x1 = 0.601	835.6 ± 0.2	830.9 ± 0.2	821.2 ± 0.2
x1 = 0.6501	831.1 ± 0.2	826.8 ± 0.2	817.3 ± 0.2
x1 = 0.7032	826.5 ± 0.2	822.4 ± 0.2	812.9 ± 0.2
x1 = 0.752	822.5 ± 0.2	818.3 ± 0.2	808.9 ± 0.2
x1 = 0.8012	818.4 ± 0.2	814 ± 0.2	805.1 ± 0.2
x1 = 0.8498	814.6 ± 0.2	810.1 ± 0.2	801.4 ± 0.2
x1 = 0.9028	810.3 ± 0.2	805.8 ± 0.2	797.4 ± 0.2
x1 = 0.9519	806.7 ± 0.2	802.4 ± 0.2	794.4 ± 0.2

CCCCCCCC[N+](C)(CCCCCCCC)CCCCCCCC.O=S(=O)([N-]S(=O)(=O)C(F)(F)F)C(F)(F)F + CCOC(C)=O
mass density, [2]
Conditions	x1 = 0.1167	x1 = 0.2291	x1 = 0.4417	x1 = 0.5433	x1 = 0.7037	x1 = 0.7993	x1 = 0.9209
298.15 K	848.1 ± 150 kg/m3 and 989.9 ± 0.1 kg/m3	1034.5 ± 0.8 kg/m3	1074.7 ± 0.4 kg/m3	1085.4 ± 0.5 kg/m3	1096.7 ± 0.8 kg/m3	1101.3 ± 1 kg/m3	1105.4 ± 1.2 kg/m3
303.15 K	984.9 ± 0.3 kg/m3	1029.5 ± 0.2 kg/m3	1069.6 ± 0.4 kg/m3	1080.3 ± 0.5 kg/m3	1091.5 ± 0.8 kg/m3	1096.2 ± 0.9 kg/m3	1100.5 ± 1.2 kg/m3
313.15 K	974.9 ± 0.1 kg/m3	1020.9 ± 0.2 kg/m3	1062.5 ± 0.4 kg/m3	1073.4 ± 0.5 kg/m3	1085 ± 0.8 kg/m3	1089.6 ± 0.9 kg/m3	1062.5 ± 50 kg/m3 and 1094.1 ± 1.2 kg/m3

CCCCCCCC[N+](C)(CCCCCCCC)CCCCCCCC.O=S(=O)([N-]S(=O)(=O)C(F)(F)F)C(F)(F)F + CCCCO
mass density [kg/m3], [2]
Conditions	x1 = 0.0654	x1 = 0.1421	x1 = 0.2623	x1 = 0.3284	x1 = 0.4437	x1 = 0.5343	x1 = 0.6385	x1 = 0.7397	x1 = 0.8432	x1 = 0.9195
298.15 K	898.1 ± 0.1	962 ± 0.2	1018 ± 0.2	1037.3 ± 0.2	1060.4 ± 0.4	1072.8 ± 0.5	1083.4 ± 0.6	1091 ± 0.8	1097.9 ± 1	1102.1 ± 1.2
303.15 K	894.3 ± 0.1	958.6 ± 0.1	1014.6 ± 0.2	1033.9 ± 0.2	1056.8 ± 0.4	1069.1 ± 0.5	1079.8 ± 0.6	1087.4 ± 0.8	1094.2 ± 1	1098.6 ± 1.2
313.15 K	887.2 ± 0.1	951.8 ± 0.2	1007.6 ± 0.2	1026.9 ± 0.2	1049.7 ± 0.4	1062.1 ± 0.5	1072.7 ± 0.6	1080.5 ± 0.8	1087.2 ± 1	1091.6 ± 1.2

CCCCCCCC[N+](C)(CCCCCCCC)CCCCCCCC.O=S(=O)([N-]S(=O)(=O)C(F)(F)F)C(F)(F)F + CCC(C)O
mass density [kg/m3], [2]
Conditions	x1 = 0.0654	x1 = 0.1397	x1 = 0.2623	x1 = 0.3282	x1 = 0.4054	x1 = 0.5045	x1 = 0.6051	x1 = 0.7046	x1 = 0.808	x1 = 0.9067
298.15 K	894.2 ± 0.2	956.2 ± 0.2	1013.8 ± 0.3	1033.4 ± 0.3	1050.6 ± 0.4	1066.7 ± 0.5	1078.5 ± 0.7	1087.3 ± 0.8	1094.6 ± 1	1100.8 ± 1.2
303.15 K	890.3 ± 0.2	952.7 ± 0.2	1010.2 ± 0.3	1029.7 ± 0.3	1046.9 ± 0.4	1063 ± 0.5	1074.8 ± 0.7	1083.7 ± 0.8	1091 ± 1	1097.2 ± 1.2
313.15 K	882.6 ± 0.2	945.3 ± 0.2	1003.1 ± 0.3	1022.5 ± 0.3	1039.7 ± 0.4	1055.7 ± 0.5	1067.6 ± 0.7	1076.5 ± 0.8	1083.9 ± 1	1090 ± 1.2

CCCCCCCC[N+](C)(CCCCCCCC)CCCCCCCC.O=S(=O)([N-]S(=O)(=O)C(F)(F)F)C(F)(F)F + CC(C)O
mass density [kg/m3], [2]
Conditions	x1 = 0.053	x1 = 0.1	x1 = 0.2045	x1 = 0.2841	x1 = 0.3934	x1 = 0.4824	x1 = 0.5896	x1 = 0.7066	x1 = 0.7967	x1 = 0.896
298.15 K	876.9 ± 0.2	932.6 ± 0.2	1004.9 ± 0.2	1033.8 ± 0.2	1056.2 ± 0.3	1067.6 ± 0.4	1078.9 ± 0.6	1089 ± 0.8	1095.2 ± 0.9	1100.5 ± 1.1
303.15 K	873 ± 0.2	928.9 ± 0.2	1001.5 ± 0.2	1030.3 ± 0.2	1052.6 ± 0.3	1063.9 ± 0.4	1075.2 ± 0.6	1085.4 ± 0.8	1091.6 ± 0.9	1096.9 ± 1.1
313.15 K	865.1 ± 0.2	921.3 ± 0.2	994.7 ± 0.2	1023.3 ± 0.2	1045.1 ± 0.3	1056.6 ± 0.4	1068.1 ± 0.6	1078.3 ± 0.8	1084.4 ± 0.9	1089.5 ± 1.1

CCOC(C)=O [ethyl acetate] + CCCCO
mass density [kg/m3], [2]
Conditions	298.15 K	303.15 K	313.15 K
x2 = 0.0904	886.5 ± 0.1	880.4 ± 0.1	869.6 ± 0.1
x2 = 0.1337	882.3 ± 0.1	876.8 ± 0.1	866 ± 0.1
x2 = 0.2525	871.5 ± 0.1	866.7 ± 0.1	856.6 ± 0.1
x2 = 0.3723	860.7 ± 0.1	856.6 ± 0.1	846.8 ± 0.2
x2 = 0.4807	851 ± 0.1	847.5 ± 0.2	838 ± 0.2
x2 = 0.5955	840.9 ± 0.1	838 ± 0.2	828.8 ± 0.2
x2 = 0.7032	831.5 ± 0.1	828.8 ± 0.2	820.1 ± 0.2
x2 = 0.8009	823 ± 0.2	820.6 ± 0.2	812.3 ± 0.2
x2 = 0.8916	815.1 ± 0.2	813 ± 0.2	805 ± 0.2
x2 = 0.9641	808.6 ± 0.2	806.7 ± 0.2	799.4 ± 0.2
x2 = 0.9795	807.3 ± 0.2	805.3 ± 0.2	798.1 ± 0.2
